Experimental data published in patent US9797015B2, “Genetic variants associated with lithium response in bipolar disorder” (Academia Sinica, priority 2013, dated 2017).
Several values for one entry are separate records, joined by “and”; a condition that tells them apart may be missing. Equal values may be shown once.

Experiments:
Type in all cases: in vivo, human
[1] = system: bipolar I (BPI) disorder patients; test: Response to long-term lithium prophylaxis treatment, Alda Scale (retrospective, life chart; GWAS and replication groups)
Text: We carried out a “discovery” GWAS, and two tests of replication. […] We genotyped each of the 1647 patients by array (see below).
To assess response to long-term lithium prophylaxis treatment in BPI disorder, we prepared a life chart with graphic depiction of lifetime clinical course for each of the BPI patients recruited before June 2012 (N=1761). […] We depicted this information graphically, based on integrated information gathered from direct interview with patients and their family members, interviews with in-charge psychiatrists, and a thorough medical chart review.
The phenotype of lithium response was assessed based on the life chart, using the Retrospective Criteria of Long-Term Treatment Response in Research Subjects with Bipolar Disorder developed by Martin Alda and Colleagues (Alda Scale). The Alda scale has two criteria. […] Criterion B (B1-B5, each rated as 0, 1 or 2 points) is used to establish whether there is a causal relationship between clinical improvement and the treatment. B1 and B2 indicate the recurrence risk off the lithium treatment [number (B1) and frequency (B2) of episodes]. B3 is a measure of the length of lithium treatment. B4 indicates compliance with lithium. B5 is a measure of concomitant psychotropic medication during periods of stability. The total score is obtained by subtracting the sum of the B scores from the A score.
In investigating a causal relationship between lithium treatment and clinical improvement of individual patients, it is important to ensure (i) comparability in clinical course between on-lithium and off-lithium periods (number, frequency and severity of episodes); (ii) satisfactory drug compliance, and (iii) the minimization of influence from additional medications (hypnotics, antidepressants, antipsychotics, and other mood stabilizers). We determined inclusion criteria accordingly, to minimize the misclassification of responders and non-responders.
See, e.g., Grof et al., J Clin Psychiatry 2002; 63:942-7; and Squassina et al, Pharmacogenomics 2011; 12:1559-69.

[2] = system: bipolar I (BPI) disorder patients; test: Follow-up study (second test of replication) of 24 patients on lithium monotherapy, Alda Scale; design: key to A − B (total score of Alda Scale): Alda total = A score minus sum of B1-B5 scores (each 0-2); conditions: for A − B (total score of Alda Scale): individual patients, follow-up 2-5 yrs
Text: In a second test of replication, we genotyped an independent series of 24 patients who had received lithium monotherapy for at least 2 years, through May 2012. We based their inclusion on a life chart (see Phenotype Definition and Assessment below) constructed for all patients in the 1647-patient sample. Each of these 24 patients had good drug adherence to mood stabilizer(s) other than lithium prior to their commencement of lithium monotherapy but with unsatisfactory response.
The phenotype of lithium response was assessed based on the life chart, using the Retrospective Criteria of Long-Term Treatment Response in Research Subjects with Bipolar Disorder developed by Martin Alda and Colleagues (Alda Scale). The Alda scale has two criteria. Criterion A measures the extent of clinical improvement in illness activity and takes into account the frequency, duration, and severity of episodes during periods of lithium treatment considered adequate in duration and dosage, compared with the frequency, duration, and severity of episodes during periods off the lithium treatment, on a scale from 0 (no change, or exacerbation of disease severity) to 10 (complete remission). Criterion B (B1-B5, each rated as 0, 1 or 2 points) is used to establish whether there is a causal relationship between clinical improvement and the treatment. B1 and B2 indicate the recurrence risk off the lithium treatment [number (B1) and frequency (B2) of episodes]. B3 is a measure of the length of lithium treatment. B4 indicates compliance with lithium. B5 is a measure of concomitant psychotropic medication during periods of stability. The total score is obtained by subtracting the sum of the B scores from the A score.
(§1) For patients in the second test of replication, we carried out regular follow-up evaluations (usually monthly and at least once every 3 months), including assay of lithium to assess drug adherence, and a SCAN interview to assess clinical condition, at outpatient clinics for at least 2 years.

[3] = Reported lithium blood levels during prophylaxis therapy; conditions: study patients with good adherence to lithium prophylaxis therapy
Text: To assess response to long-term lithium prophylaxis treatment in BPI disorder, we prepared a life chart with graphic depiction of lifetime clinical course for each of the BPI patients recruited before June 2012 (N=1761). This life chart included all manic, hypomanic, and depressive episodes with date of onset (year and month), duration, and severity (including the extent of functional disability, hospitalization, and the presence of psychotic features), all doses of and duration of treatment with psychotropics and mood stabilizers known have been prescribed, drug adherence recorded in medical chart for all visits at outpatient clinics, all recorded blood levels of mood stabilizers, and any adverse drug reactions. We depicted this information graphically, based on integrated information gathered from direct interview with patients and their family members, interviews with in-charge psychiatrists, and a thorough medical chart review. Based on this life chart, we determined whether individual patients had good drug adherence.
as §1

[4] = 394 bipolar I patients under lithium prophylaxis, B5 = 2 (prolonged antidepressant and/or antipsychotic and/or mood stabilizer)

SMILES: [Li] [lithium]
- Good response to treatment (A − B ≧ 6) ([1]; 394 bipolar I patients under lithium prophylaxis, B5 = 1 (low dose antidepressants and/or antipsychotics and/or prolonged sleep medication)): 124 (50.4) N(%)
- Good response to treatment (A − B ≧ 6) [1, 4]: 5 (5.0) N(%)
- Poor response to treatment (A − B < 6) [1, 4]: 96 (95.0) N(%)
- Good response to treatment (A − B ≧ 6) ([1]; 394 bipolar I patients under lithium prophylaxis, additional medication B5 = 0 (none except infrequent sleep medication)): 30 (63.8) N(%)
- Poor responders to treatment at cutoff 5/6 ([1]; study subjects with a B5 score of 2): 95.0%
- total Alda score, range ([2]; carriers of the response alleles (N=16), good response): 8-10
- A − B (total score of Alda Scale) ([2]; rs17026688 genotype CC): 3 (3×) and 2 (2×) and 0 (3×)
- A − B (total score of Alda Scale) ([2]; rs17026688 genotype CT): 10 (5×) and 9 (6×) and 8
- A − B (total score of Alda Scale) ([2]; rs17026688 genotype TT): 9
- total Alda score, range ([2]; non-carriers (N=8), poor response): 0-3
- lithium blood levels [3]: ≥ 0.5 mM
